According to publication PMC11597478, “Kinin B1- and B2-Receptor Subtypes Contract Isolated Bovine Ciliary Muscle: Their Role in Ocular Lens Function and Intraocular Pressure Reduction” (Pharmaceuticals, 2024):
Like-named read-outs stand apart in the source and are kept apart here. One block for each molecule: values may come before it. Square brackets hold non-standard residues; d marks the D form. Peptide text beside a SMILES is read from it. * marks the point of attachment. X1 = COc1ccc(C[C@@H](CN[C@@H](CCCNC(=N)N)C(=O)O)N*)cc1; Hyp = O=C(O)[C@@H]1C[C@@H](O)CN1; 2Thi = N[C@@H](Cc1cccs1)C(=O)O

Tests used:
[1] = system: bovine ciliary muscle (BCM) strips; test: tissue or blood; type: cell-based; conditions: for share of the maximal contraction accounted for by the first high affinity/potency phase: biphasic C-R curve, BCM strips; for Max. Tension Generated During Contraction: freshly isolated BCM strips, Krebs 37 °C, 1 g load, 7–11 concentrations (0.1 nM–10 µM), mean ± SEM, 3–8 experiments
Procedure: The methods utilized in the current studies were adapted from Lograno and Romano [13] and Ohia et al., with some minor modifications. Fresh bovine eyeballs were obtained from a local abattoir (Fisher Ham and Meat Company, Houston, TX, USA) and transported to the laboratory in ice. Whole eyeballs were placed in warm oxygenated Krebs buffer solution for 30 min to ensure equilibration before dissection of the ciliary muscle. Briefly, the anterior segment was dissected out of whole eyeballs after an incision was made at the limbus. The anterior segment containing the cornea, anterior uvea, and lens was then inverted and the lens dislodged with a probe along with the attached vitreous humor. After removal of the vitreous humor and lens, the whole ciliary muscle (comprising both longitudinal and circular portions) was quickly isolated and dissected from the scleral spur and choroid. Muscle strips of 4–5 mm in length were cut and mounted in 25 mL organ baths containing oxygenated Krebs solution at 37 °C using a silk thread linked to an isometric strain gauge under a constant load of 1g tension. The tissues were then allowed to equilibrate for 30 min. Two ciliary muscle strips were prepared from each eyeball and four to eight strips were used for each series of experiments. The composition of the Krebs solution used (mM) was NaCl, 118; KCl, 4.8; CaCl2, 2.5; KH2PO4, 1.2; NaHCO3, 25; MgSO4, 2.0; dextrose, 10 and flurbiprofen, 0.003 (pH 7.4), all purchased from Sigma-Aldrich, St. Louis, MO (USA). […] A robust response was characterized as a single contraction that consistently yielded a tension in the muscle induced by carbachol of 0.15–0.3 gm. […] Tissue strips were then thoroughly rinsed with fresh buffer solution via a series of buffer additions and drainage activities to remove any residual muscarinic agonist, and the preload was readjusted prior to starting the actual study with kininergic ligands. Concentration–response studies employed 7–11 compound concentrations (0.1 nM to 10 µM) and data from multiple experiments were collected.
The contractile responses obtained were expressed as gram tension developed and as percentages of the maximum response of each of the compounds. GraphPad Prism 4.0 Software (San Diego, CA, USA) was then used to construct the concentration–response curves for the kinins and to derive the half-maximal stimulation potencies (EC50) of each phase of the bi-phasic curves and the values tabulated as previously described.

[2] = target: kinin B2 receptor (Oryctolagus cuniculus) (UniProt Q28642); conditions: cited from earlier work
[3] = target: kinin B2 receptor (Homo sapiens) (UniProt P30411); conditions: cited from earlier work
[4] = target: kinin B2 receptor (Mus musculus) (UniProt P32299); conditions: cited from earlier work
[5] = target: kinin B1 receptor (Homo sapiens) (UniProt P46663); conditions: cited from earlier work
[6] = target: kinin B1 receptor (Mus musculus) (UniProt Q61125); conditions: cited from earlier work
[7] = target: kinin B1 receptor (Oryctolagus cuniculus) (UniProt P48748); conditions: cited from earlier work
[8] = system: bovine aortic endothelial cells; conditions: ref [21]; cited from earlier work
Description: Figure 2 Chemical structures of bradykinin and its key analogs and those of the selective B1- and B2-receptor antagonists. The amino acid composition and linkage to form bradykinin and its analogs (linear peptides) are depicted in the upper panel.

[9] = target: kinin B1 receptor (Mus musculus) (UniProt Q61125); conditions: cited from earlier work; remark: listed apart in the source
[10] = system: human trabecular meshwork (hTM) cells; conditions: [Ca2+]i mobilization, second value of cell; single B2-receptor subtype; ref [2],[8]; read-out: Functional potency, hTM Cells, HP Site; cited from earlier work
Description: (§1) Table 2 Ability of BK and Des-Arg^9-BK to Contract Various Tissues of Different Species or to Mobilize Intracellular Ca^2+ in human Ocular Cells. | column: hCM/hTM Cells

[11] = system: human ciliary muscle (hCM) cells; conditions: [Ca2+]i mobilization, first value of cell; single B2-receptor subtype; ref [2],[8]; read-out: Functional potency, hCM Cells, HP Site; cited from earlier work
Description: as §1

[12] = system: human umbilical vein; conditions: B2-receptor-mediated contraction; ref [1],[2],[3],[18],[20],[23]; read-out: Functional potency, HUV, HP Site; cited from earlier work
Description: Table 2 Ability of BK and Des-Arg^9-BK to Contract Various Tissues of Different Species or to Mobilize Intracellular Ca^2+ in human Ocular Cells. | column: HUV

[13] = target: cloned B2 receptor; conditions: ref [1]; cited from earlier work
[14] = target: cloned B2 receptor; conditions: ref [1]; read-out: Ki, cloned B2 receptor (rabbit); cited from earlier work
[15] = target: cloned B2 receptor; conditions: ref [1]; read-out: Ki, cloned B2 receptor (mouse); cited from earlier work
[16] = system: rat ileum; conditions: B1-receptor in rat ileum, contraction; ref [25]; read-out: Functional potency, RI, HP Site; cited from earlier work
Description: Table 2 Ability of BK and Des-Arg^9-BK to Contract Various Tissues of Different Species or to Mobilize Intracellular Ca^2+ in human Ocular Cells. | column: RI || In the current studies, both BK and Des-Arg^9-BK contracted the BCM in a biphasic fashion, indicating the involvement of both B1 and B2 receptors in the smooth muscle contraction process. Other agonist peptides related to BK also elicited similar profiles of contractility, thereby substantiating the effects of BK and Des-Arg^9-BK in this specific tissue. Furthermore, the role of both kinin receptor subtypes being responsible for contracting BCM in vitro was confirmed by sequentially recording the functional responses of the tissue in the presence of B1- and B2-receptor antagonists in numerous ...

[17] = system: rat uterus strips; conditions: B2-receptor-mediated contraction; ref [1],[2],[3],[18],[20],[23]; read-out: Functional potency, RUT, HP Site; cited from earlier work
Description: Table 2 Ability of BK and Des-Arg^9-BK to Contract Various Tissues of Different Species or to Mobilize Intracellular Ca^2+ in human Ocular Cells. | column: RUT

Sequence of UniProt Q61125 (Q61125 whole entry): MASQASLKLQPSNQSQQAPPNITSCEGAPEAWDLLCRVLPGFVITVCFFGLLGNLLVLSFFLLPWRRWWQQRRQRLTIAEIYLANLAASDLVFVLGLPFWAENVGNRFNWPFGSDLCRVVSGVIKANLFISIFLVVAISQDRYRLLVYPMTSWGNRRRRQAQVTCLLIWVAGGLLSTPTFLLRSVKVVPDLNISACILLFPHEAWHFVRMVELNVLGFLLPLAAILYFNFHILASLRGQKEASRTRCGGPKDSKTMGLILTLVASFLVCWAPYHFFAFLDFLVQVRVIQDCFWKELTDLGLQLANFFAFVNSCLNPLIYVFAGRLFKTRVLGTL
Sequence of UniProt P32299 (P32299 whole entry): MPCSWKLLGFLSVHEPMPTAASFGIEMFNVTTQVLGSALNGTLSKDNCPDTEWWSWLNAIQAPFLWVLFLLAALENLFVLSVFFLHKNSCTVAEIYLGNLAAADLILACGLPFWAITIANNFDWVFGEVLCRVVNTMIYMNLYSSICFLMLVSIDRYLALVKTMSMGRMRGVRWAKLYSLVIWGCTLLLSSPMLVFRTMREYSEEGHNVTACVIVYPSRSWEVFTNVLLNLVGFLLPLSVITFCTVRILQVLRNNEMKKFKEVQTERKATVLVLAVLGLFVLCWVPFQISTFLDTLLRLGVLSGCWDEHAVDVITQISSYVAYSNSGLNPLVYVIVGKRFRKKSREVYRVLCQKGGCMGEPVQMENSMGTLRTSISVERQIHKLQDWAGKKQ
Sequence of UniProt P46663 (P46663 whole entry): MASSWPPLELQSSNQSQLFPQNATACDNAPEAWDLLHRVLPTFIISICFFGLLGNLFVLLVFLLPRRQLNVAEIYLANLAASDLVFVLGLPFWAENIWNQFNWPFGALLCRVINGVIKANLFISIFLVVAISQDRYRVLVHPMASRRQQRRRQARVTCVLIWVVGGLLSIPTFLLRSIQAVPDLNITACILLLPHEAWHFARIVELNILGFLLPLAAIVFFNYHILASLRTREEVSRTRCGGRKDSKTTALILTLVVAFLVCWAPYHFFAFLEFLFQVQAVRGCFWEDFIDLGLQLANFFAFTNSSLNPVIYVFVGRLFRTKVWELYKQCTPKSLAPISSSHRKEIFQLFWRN
Sequence of UniProt P30411 (P30411 whole entry): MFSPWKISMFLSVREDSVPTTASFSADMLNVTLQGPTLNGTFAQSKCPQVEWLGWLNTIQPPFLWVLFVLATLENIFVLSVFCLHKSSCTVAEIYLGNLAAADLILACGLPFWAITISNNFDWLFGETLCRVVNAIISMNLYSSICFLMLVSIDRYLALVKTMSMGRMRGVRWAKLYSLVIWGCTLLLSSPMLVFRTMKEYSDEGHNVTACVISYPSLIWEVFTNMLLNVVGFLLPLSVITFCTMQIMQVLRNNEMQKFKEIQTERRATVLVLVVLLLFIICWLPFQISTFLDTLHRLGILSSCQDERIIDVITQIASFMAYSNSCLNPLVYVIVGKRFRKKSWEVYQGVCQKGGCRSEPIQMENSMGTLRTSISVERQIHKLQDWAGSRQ
Sequence of UniProt P48748 (P48748 whole entry): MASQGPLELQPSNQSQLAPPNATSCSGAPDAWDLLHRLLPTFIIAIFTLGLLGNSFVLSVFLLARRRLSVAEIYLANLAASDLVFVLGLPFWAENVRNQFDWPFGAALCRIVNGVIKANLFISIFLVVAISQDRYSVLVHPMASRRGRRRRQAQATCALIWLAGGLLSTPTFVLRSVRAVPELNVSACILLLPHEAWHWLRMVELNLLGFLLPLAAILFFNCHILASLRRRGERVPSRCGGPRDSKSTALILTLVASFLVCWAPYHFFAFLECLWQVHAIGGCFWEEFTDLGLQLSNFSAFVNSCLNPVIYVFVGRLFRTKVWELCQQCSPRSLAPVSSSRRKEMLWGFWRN
Sequence of UniProt Q28642 (Q28642 whole entry): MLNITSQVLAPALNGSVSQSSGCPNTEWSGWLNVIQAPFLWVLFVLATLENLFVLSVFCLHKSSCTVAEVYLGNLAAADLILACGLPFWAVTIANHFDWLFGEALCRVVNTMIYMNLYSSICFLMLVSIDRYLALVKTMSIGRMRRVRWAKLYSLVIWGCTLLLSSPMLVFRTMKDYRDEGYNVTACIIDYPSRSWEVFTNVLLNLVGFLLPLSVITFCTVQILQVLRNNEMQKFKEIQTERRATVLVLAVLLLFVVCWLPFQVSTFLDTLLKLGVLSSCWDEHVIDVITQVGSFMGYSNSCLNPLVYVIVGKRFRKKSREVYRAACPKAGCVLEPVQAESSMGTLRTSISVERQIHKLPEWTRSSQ

EC50 [1]: 3.5 ± 0.5 nM
Molecule: COc1ccc(C[C@@H](CN[C@@H](CCCNC(=N)N)C(=O)O)NC(=O)[C@@H]2CCCN2C(=O)[C@H](CO)NC(=O)[C@H](Cc2cccs2)NC(=O)CNC(=O)[C@@H]2C[C@@H](O)CN2C(=O)[C@@H]2CCCN2C(=O)[C@@H](N)CCCNC(=N)N)cc1 [RMP-7] (H-RP[Hyp]G[2Thi]SP-X1)
share of the maximal contraction accounted for by the first high affinity/potency phase [1]: 40–60% | Max. Tension Generated During Contraction [1]: 0.07 ± 0.01 gm tension

Molecule: CN1[C@@H]2CC[C@H]1C[C@@H](OC(=O)C(CO)c1ccccc1)C2 (stereo partly shown) [atropine]
EC50 ([1]; Bos taurus, carbachol C-R curve in the absence and presence of atropine, n = 6, read-out: potency (EC50) from monophasic carbachol concentration-response curve): 1000 ± 70 nM | effect of muscarinic antagonist on carbachol-induced BCM contraction ([1]; increasing concentrations of atropine, n = 6–8): concentration-dependently blocked

Molecule: C[N+](C)(C)CCOC(N)=O [carbachol]
contraction of BCM by positive control agent ([1]; monophasic concentration-dependent profile, n = 6–8): always contracted the tissue

Molecule: N=C(N)NCCC[C@H](NC(=O)[C@H](Cc1ccccc1)NC(=O)[C@@H]1CCCN1C(=O)[C@H](CO)NC(=O)[C@H](Cc1ccccc1)NC(=O)CNC(=O)[C@@H]1C[C@@H](O)CN1C(=O)[C@@H]1CCCN1C(=O)[C@@H](N)CCCNC(=N)N)C(=O)O [Hyp^3-BK, Hyp^3-Bradykinin]
share of the maximal contraction accounted for by the first high affinity/potency phase [1]: 40–60% | Max. Tension Generated During Contraction [1]: 0.04 ± 0.01 gm tension

Molecule: CSCC[C@H](N)C(=O)N[C@@H](CCCCN)C(=O)N[C@@H](CCCNC(=N)N)C(=O)N1CCC[C@H]1C(=O)N1CCC[C@H]1C(=O)NCC(=O)N[C@@H](Cc1ccccc1)C(=O)N[C@@H](CO)C(=O)N1CCC[C@H]1C(=O)N[C@@H](Cc1ccccc1)C(=O)N[C@@H](CCCNC(=N)N)C(=O)O [Met-Lys-BK, Met-Lys-Bradykinin]
share of the maximal contraction accounted for by the first high affinity/potency phase [1]: 40–60% | Max. Tension Generated During Contraction [1]: 0.06 ± 0.01 gm tension

Molecule: Bradykinin (from UniProt P01042)
Ki [2]: 4.5 nM | Ki [3]: 0.54 nM | Ki [4]: 0.48 nM | Ki [5]: 10000 nM | Ki [6]: 200 nM | Ki [7]: 5000 nM

Molecule: CCCC[P+](CCCC)(CCCC)Cc1ccc(NC(=O)[C@H](Cc2ccc3ccccc3c2)NC(=NC2CCCCC2)NC2CCCCC2)cc1.[Cl-] [WIN-64338]
effect on cGMP production induced by Des-Arg^9-BK [8]: block the cGMP-producing effects of Des-Arg^9-BK

Molecule: Des-Arg9-bradykinin (from UniProt P01042)
Ki [9]: 0.7 nM

Molecule: N=C(N)NCCC[C@H](NC(=O)[C@H](Cc1ccccc1)NC(=O)[C@@H]1CCCN1C(=O)[C@H](CO)NC(=O)[C@H](Cc1ccccc1)NC(=O)CNC(=O)[C@@H]1CCCN1C(=O)[C@@H]1CCCN1C(=O)[C@H](CCCNC(=N)N)NC(=O)[C@@H](N)CCCCN)C(=O)O [Lys-BK, Lys-Bradykinin]
share of the maximal contraction accounted for by the first high affinity/potency phase [1]: 40–60% | Max. Tension Generated During Contraction [1]: 0.06 ± 0.01 gm tension

EC50 [1]: 30 ± 1.9 nM
Molecule: N=C(N)NCCC[C@H](N)C(=O)N1CCC[C@H]1C(=O)N1CCC[C@H]1C(=O)NCC(=O)N[C@@H](Cc1ccccc1)C(=O)N[C@@H](CO)C(=O)N1CCC[C@H]1C(=O)N[C@@H](Cc1ccccc1)C(=O)O [Des-Arg^9-BK, Des-Arg^9-Bradykinin]
EC50 [10]: 3600 nM | EC50 [11]: 4200 nM | EC50 [12]: > 1000 nM | Ki [13]: 8100 nM | Ki [14]: > 1000 nM | Ki [15]: 6400 nM | EC50 [16]: 18.6 nM | share of the maximal contraction accounted for by the first high affinity/potency phase [1]: 40–60% | Max. Tension Generated During Contraction [1]: 0.06 ± 0.01 gm tension | EC50 [17]: > 1000 nM
